# Read-outs that look alike come from different tables or passages of the source. Marks after values point to notes of the source that are not given here.
# Tests used:
# Xenopus laevis embryos = system: Xenopus laevis embryos
# Method: Morphological measurements of microcephaly and growth retardation.
# Vitamin C treatment. Embryos at stage 13 (initial neural plate stage) were collected and divided into groups, each containing 15-20 embryos and incubated in a plastic petri dish containing MMR medium as stated above. Vitamin C, having a concentration of 100 μM, was added either concomitantly, 2 hours before, or 2 hours after the initiation of a 12-hour alcohol exposure. The tadpoles were fixed and measurements were made as stated above.
# Pax6 = conditions: animal caps until stage 22
# From the text: (§1) RT-PCR Animal caps were dissected from embryos at stage 8.5 and cultured in 67% Leibovitz's L-15 medium, pH 7.5 in the presence or absence of varied concentration of alcohol until stage 22. Total RNA was extracted from cultured animal caps with Trizol reagent (Invitrogen). Primer sets and PCR conditions for NCAM and Pax6 have been described in our previous reports (Peng, Neurobiol. Dis., 2004; Peng, J. Mol. Biol., 2004). PCR products were subject to electrophoresis on TBE gel and visualized by ethidium bromide staining.
# (§2) Animal cap explant assay. […] Total RNA was extracted from animal caps or whole embryos using TRIZOL reagent (Invitrogen). The total RNA was reverse transcribed using the Superscript system (Invitrogen), and the first strand cDNA of the target gene amplified by PCR.
# (§3) The Xenopus animal cap is composed of pluripotent cells that can be induced to form neural, mesodermal, or epidermal tissue, and is a useful tissue to assess the activity of various factors on neural development. Animal caps were treated with varied concentrations of alcohol as indicated.
# NCAM = conditions: animal caps until stage 22
# From the text: as §1, §2, §3
smiles,measurement,setting,value
"CCO [Ethanol, ethanol]",dead,"Xenopus laevis embryos; 0.6% EtOH for 12 hours from stage 13, 15 embryos",2
same,Alive,"Xenopus laevis embryos; Xenopus laevis, in vivo, 12 h",13
same,Body length,"Xenopus laevis embryos; Xenopus laevis, in vivo, 12 h",9.25 ± 010^b mm
same,Eye distance,"Xenopus laevis embryos; Xenopus laevis, in vivo, 12 h",1.63 ± 005^b mm
same,suppression of Pax6 expression,Pax6; 0.1% alcohol,25%
same,suppression of Pax6 expression,Pax6; 0.2% alcohol,50%
same,suppression of Pax6 expression,Pax6; 0.3% (65 mM) alcohol,90%
same,reduction of NCAM expression,NCAM; 0.1% alcohol,15%
same,reduction of NCAM expression,NCAM; 0.2% alcohol,25%
same,reduction of NCAM expression,NCAM; 0.3% alcohol,50%
same,reduction of NCAM expression,NCAM; 0.4% alcohol,70%

# — patent US20060037085A1, “Animal model for fetal alcohol syndrome and methods of treatment” (priority 2004, published 2006)
